In ChEMBL document CHEMBL5137080, “Discovery of Novel 7-Hydroxy-5-oxo-4,5-dihydrothieno[3,2-b]pyridine-6-carboxamide Derivatives with Potent and Selective Antifungal Activity against Cryptococcus Species” (J Med Chem, 2022):
Converted amounts (≈) assume the structure as drawn.

Experiments:
Candida albicans = experiment: Antifungal activity against Candida albicans SC5314 assessed as fungal growth inhibition incubated for 48 hrs by broth microdilution method; type: functional
Aspergillus fumigatus = experiment: Antifungal activity against Aspergillus fumigatus 7544 assessed as fungal growth inhibition incubated for 48 hrs by broth microdilution method; type: functional
Cryptococcus neoformans [1] = experiment: Antifungal activity against Cryptococcus neoformans H99 assessed as fungal growth inhibition incubated for 72 hrs by broth microdilution method; type: functional
[2] = system: Cryptococcus gattii species complex; experiment: Antifungal activity against Cryptococcus gattii E566 assessed as fungal growth inhibition incubated for 72 hrs by broth microdilution method; type: functional
[3] = system: Cryptococcus deuterogattii; experiment: Antifungal activity against Cryptococcus gattii WM178 assessed as fungal growth inhibition incubated for 72 hrs by broth microdilution method; type: functional, Cryptococcus gattii species complex
Cryptococcus gattii = experiment: Antifungal activity against Cryptococcus gattii WM179 assessed as fungal growth inhibition incubated for 72 hrs by broth microdilution method; type: functional, Cryptococcus gattii species complex
[Candida] auris = Antifungal activity against Candida auris CBS 12372 assessed as fungal growth inhibition incubated for 48 hrs by broth microdilution method; type: functional; settings: Candidozyma auris
Nakaseomyces glabratus [4] = experiment: Antifungal activity against Candida glabrata ATCC1182 assessed as fungal growth inhibition incubated for 48 hrs by broth microdilution method; type: functional
Cryptococcus neoformans [5] = experiment: Antifungal activity against Cryptococcus neoformans clinical isolate BJ3 assessed as fungal growth inhibition incubated for 72 hrs by broth microdilution method; type: functional
Pichia kudriavzevii = experiment: Antifungal activity against Candida krusei ATCC2340 assessed as fungal growth inhibition incubated for 48 hrs by broth microdilution method; type: functional
Candida tropicalis = experiment: Antifungal activity against Candida tropicalis ATCC20026 assessed as fungal growth inhibition incubated for 48 hrs by broth microdilution method; type: functional
Cryptococcus neoformans [6] = experiment: Antifungal activity against Cryptococcus neoformans clinical isolate 56992 assessed as fungal growth inhibition incubated for 72 hrs by broth microdilution method; type: functional
Cryptococcus neoformans [7] = experiment: Antifungal activity against Cryptococcus neoformans clinical isolate HN1 assessed as fungal growth inhibition incubated for 72 hrs by broth microdilution method; type: functional
Cryptococcus neoformans [8] = experiment: Antifungal activity against Cryptococcus neoformans clinical isolate HN2 assessed as fungal growth inhibition incubated for 72 hrs by broth microdilution method; type: functional
Cryptococcus neoformans [9] = experiment: Antifungal activity against Cryptococcus neoformans clinical isolate HN2-40 assessed as fungal growth inhibition incubated for 72 hrs by broth microdilution method; type: functional
Cryptococcus neoformans [10] = experiment: Antifungal activity against Cryptococcus neoformans clinical isolate HN15 assessed as fungal growth inhibition incubated for 72 hrs by broth microdilution method; type: functional
Cryptococcus neoformans [11] = experiment: Antifungal activity against Cryptococcus neoformans clinical isolate HN17 assessed as fungal growth inhibition incubated for 72 hrs by broth microdilution method; type: functional
Cryptococcus neoformans [12] = experiment: Antifungal activity against Cryptococcus neoformans clinical isolate HN19 assessed as fungal growth inhibition incubated for 72 hrs by broth microdilution method; type: functional
Cryptococcus neoformans [13] = experiment: Antifungal activity against Cryptococcus neoformans clinical isolate HN20 assessed as fungal growth inhibition incubated for 72 hrs by broth microdilution method; type: functional
Cryptococcus neoformans [14] = experiment: Antifungal activity against Cryptococcus neoformans clinical isolate SH68 assessed as fungal growth inhibition incubated for 72 hrs by broth microdilution method; type: functional
Cryptococcus neoformans [15] = experiment: Antifungal activity against Cryptococcus neoformans clinical isolate 443 assessed as fungal growth inhibition incubated for 72 hrs by broth microdilution method; type: functional
Cryptococcus neoformans [16] = experiment: Antifungal activity against Cryptococcus neoformans clinical isolate 444 assessed as fungal growth inhibition incubated for 72 hrs by broth microdilution method; type: functional
Cryptococcus neoformans [17] = experiment: Antifungal activity against Cryptococcus neoformans clinical isolate 445 assessed as fungal growth inhibition incubated for 72 hrs by broth microdilution method; type: functional
[18] = system: Cryptococcus gattii species complex; experiment: Antifungal activity against Cryptococcus gattii clinical isolate SCZ20024 assessed as fungal growth inhibition incubated for 72 hrs by broth microdilution method; type: functional
[19] = system: Cryptococcus gattii species complex; experiment: Antifungal activity against Cryptococcus gattii clinical isolate SCZ20031 assessed as fungal growth inhibition incubated for 72 hrs by broth microdilution method; type: functional
[20] = system: Cryptococcus deuterogattii; experiment: Antifungal activity against Cryptococcus gattii WM178 assessed as fungal growth inhibition incubated for 72 hrs in presence of P163-0892 by broth microdilution method; type: functional, Cryptococcus gattii species complex
Cryptococcus neoformans [21] = experiment: Synergistic antifungal activity against Cryptococcus neoformans clinical isolate HN17 assessed as fractional inhibitory concentration index incubated for 72 hrs in presence of P163-0892 by broth microdilution method; type: functional
Cryptococcus neoformans [22] = experiment: Antifungal activity against Cryptococcus neoformans H99 infected in Wax moth larvae assessed as reduction on fungal burden at 10 mg/kg measured after 9 days by 10 fold serial dilution method; type: functional; settings: time 9 day
Cryptococcus neoformans [23] = experiment: Antifungal activity against Cryptococcus neoformans H99 infected in Wax moth larvae assessed as median survival time at 10 mg/kg measured after 9 days by Kaplan-Meier method; type: functional; settings: time 9 day
[24] = system: Cryptococcus deuterogattii; experiment: Antifungal activity against Cryptococcus gattii WM178 infected in Wax moth larvae assessed as median survival time at 10 mg/kg measured after 9 days by Kaplan-Meier method; type: functional, Cryptococcus gattii species complex; settings: time 9 day
[25] = Cytotoxicity against human HUVEC cells assessed as inhibition on cell growth incubated for 24 hrs by CCK-8 assay; type: toxicity, cell-based
[26] = Cytotoxicity against human HUVEC cells assessed as cell viability at 256 ug/ml incubated for 24 hrs by CCK-8 assay; type: toxicity, cell-based; settings: at 256 µg/mL, read-out: Activity
[27] = Cytotoxicity against human Caco-2 cells assessed as cell viability at 256 ug/ml incubated for 24 hrs by CCK-8 assay; type: toxicity, cell-based; settings: at 256 µg/mL, read-out: Activity
[28] = Hemolytic activity in rabbit RBC at 16 ug/ml incubated for 1 hr by spectrophotometry; type: toxicity, cell-based, Oryctolagus cuniculus, Erythrocyte; settings: red blood cells, at 16 µg/mL, read-out: Activity
[29] = Hemolytic activity in rabbit RBC at 256 ug/ml incubated for 1 hr by spectrophotometry; type: toxicity, cell-based, Oryctolagus cuniculus, Erythrocyte; settings: red blood cells, at 256 µg/mL, read-out: Activity
Cryptococcus neoformans [30] = experiment: Antifungal activity against Cryptococcus neoformans H99 infected in Wax moth larvae assessed as survival rate at 10 mg/kg measured after 9 days by Kaplan-Meier method; type: functional; settings: H99, 216 h, time 9 day
[31] = system: Cryptococcus deuterogattii; experiment: Antifungal activity against Cryptococcus gattii WM178 infected in Wax moth larvae assessed as survival rate at 10 mg/kg measured after 9 days by Kaplan-Meier method; type: functional, Cryptococcus gattii species complex; settings: WM178, 216 h, time 9 day
Cryptococcus neoformans [32] = experiment: Antifungal activity against Cryptococcus neoformans clinical isolate HN2 assessed as fungal growth inhibition incubated for 72 hrs in presence of Fluconazole by broth microdilution method; type: functional
[33] = system: Cryptococcus gattii species complex; experiment: Antifungal activity against Cryptococcus gattii clinical isolate SCZ20024 assessed as fungal growth inhibition incubated for 72 hrs in presence of Fluconazole by broth microdilution method; type: functional
Nakaseomyces glabratus [34] = experiment: Synergistic antifungal activity against Candida glabrata ATCC1182 assessed as fractional inhibitory concentration index incubated for 48 hrs in presence of Fluconazole by broth microdilution method; type: functional
Cryptococcus neoformans [35] = experiment: Synergistic antifungal activity against Cryptococcus neoformans clinical isolate HN2-40 assessed as fractional inhibitory concentration index incubated for 72 hrs in presence of Fluconazole by broth microdilution method; type: functional
Cryptococcus neoformans [36] = experiment: Antifungal activity against Cryptococcus neoformans H99 infected in Wax moth larvae assessed as survival rate at 10 mg/kg measured after 9 days in presence of Fluconazole by Kaplan-Meier method; type: functional; settings: H99, 216 h, time 9 day
[37] = Half life in Sprague-Dawley rat at 5 mg/kg,po by LC-MS/MS analysis; type: ADME, organism-based; settings: in vivo

SMILES: OC(Cn1cncn1)(Cn1cncn1)c1ccc(F)cc1F [FLUCONAZOLE]
- MIC (Candida albicans): 0.5 µg/mL (≈ 1.63 µM)
- MIC (Aspergillus fumigatus): > 64 µg/mL
- MIC (Cryptococcus neoformans [1]): 16 µg/mL (≈ 52.2 µM)
- MIC [2]: 4 µg/mL (≈ 13.1 µM)
- MIC [3]: 4 µg/mL (≈ 13.1 µM)
- MIC (Cryptococcus gattii): 4 µg/mL (≈ 13.1 µM)
- MIC ([Candida] auris): 1 µg/mL (≈ 3.27 µM)
- MIC (Nakaseomyces glabratus [4]): > 64 µg/mL
- MIC (Cryptococcus neoformans [5]): 2 µg/mL (≈ 6.53 µM)
- MIC (Pichia kudriavzevii): 8 µg/mL (≈ 26.1 µM)
- MIC (Candida tropicalis): 2 µg/mL (≈ 6.53 µM)
- MIC (Cryptococcus neoformans [6]): 2 µg/mL (≈ 6.53 µM)
- MIC (Cryptococcus neoformans [7]): 2 µg/mL (≈ 6.53 µM)
- MIC (Cryptococcus neoformans [8]): 2 µg/mL (≈ 6.53 µM)
- MIC (Cryptococcus neoformans [9]): 1 µg/mL (≈ 3.27 µM)
- MIC (Cryptococcus neoformans [10]): 4 µg/mL (≈ 13.1 µM)
- MIC (Cryptococcus neoformans [11]): 4 µg/mL (≈ 13.1 µM)
- MIC (Cryptococcus neoformans [12]): 4 µg/mL (≈ 13.1 µM)
- MIC (Cryptococcus neoformans [13]): 0.5 µg/mL (≈ 1.63 µM)
- MIC (Cryptococcus neoformans [14]): 8 µg/mL (≈ 26.1 µM)
- MIC (Cryptococcus neoformans [15]): 8 µg/mL (≈ 26.1 µM)
- MIC (Cryptococcus neoformans [16]): 4 µg/mL (≈ 13.1 µM)
- MIC (Cryptococcus neoformans [17]): 8 µg/mL (≈ 26.1 µM)
- MIC [18]: 4 µg/mL (≈ 13.1 µM)
- MIC [19]: 8 µg/mL (≈ 26.1 µM)
- MIC [20]: 0.5 µg/mL
- fractional inhibitory concentration index (FICI) (Cryptococcus neoformans [21]): 0.156
- Activity (Cryptococcus neoformans [22]): 5.3 log10CFU/g
- MST (Cryptococcus neoformans [23]): 2.5 days
- MST [24]: 3 days
- IC50 at 24 h [25]: > 64 µg/mL
- viability at 24 h, 256 ug/ml [26]: 108%
- viability at 24 h, 256 ug/ml [27]: 95.3%
- hemolysis at 1 h, 16 ug/ml [28]: 2.65%
- hemolysis at 1 h, 256 ug/ml [29]: 2.67%
- survival at 10 mg/kg (Cryptococcus neoformans [30]): 35%
- survival at 10 mg/kg [31]: 40%

SMILES: CCCCNC(=O)c1c(O)c2sccc2n(Cc2ccccc2)c1=O
- MIC (Candida albicans): > 64 µg/mL
- MIC (Aspergillus fumigatus): > 64 µg/mL
- MIC (Cryptococcus neoformans [1]): 0.25 µg/mL (≈ 0.701 µM)
- MIC [2]: 0.5 µg/mL (≈ 1.4 µM)
- MIC [3]: 0.5 µg/mL (≈ 1.4 µM)
- MIC (Cryptococcus gattii): 0.5 µg/mL (≈ 1.4 µM)
- MIC ([Candida] auris): > 64 µg/mL
- MIC (Nakaseomyces glabratus [4]): > 64 µg/mL
- MIC (Cryptococcus neoformans [5]): 0.5 µg/mL (≈ 1.4 µM)
- MIC (Pichia kudriavzevii): > 64 µg/mL
- MIC (Candida tropicalis): > 64 µg/mL
- MIC (Cryptococcus neoformans [6]): 1 µg/mL (≈ 2.81 µM)
- MIC (Cryptococcus neoformans [7]): 0.5 µg/mL (≈ 1.4 µM)
- MIC (Cryptococcus neoformans [8]): 0.5 µg/mL (≈ 1.4 µM)
- MIC (Cryptococcus neoformans [9]): 0.5 µg/mL (≈ 1.4 µM)
- MIC (Cryptococcus neoformans [10]): 1 µg/mL (≈ 2.81 µM)
- MIC (Cryptococcus neoformans [11]): 1 µg/mL (≈ 2.81 µM)
- MIC (Cryptococcus neoformans [12]): 1 µg/mL (≈ 2.81 µM)
- MIC (Cryptococcus neoformans [13]): 0.25 µg/mL (≈ 0.701 µM)
- MIC (Cryptococcus neoformans [14]): 0.5 µg/mL (≈ 1.4 µM)
- MIC (Cryptococcus neoformans [15]): 1 µg/mL (≈ 2.81 µM)
- MIC (Cryptococcus neoformans [16]): 0.5 µg/mL (≈ 1.4 µM)
- MIC (Cryptococcus neoformans [17]): 2 µg/mL (≈ 5.61 µM)
- MIC [18]: 1 µg/mL (≈ 2.81 µM)
- MIC [19]: 1 µg/mL (≈ 2.81 µM)
- MIC (Cryptococcus neoformans [32]): 0.0313 µg/mL
- MIC [33]: 0.0313 µg/mL
- fractional inhibitory concentration index (FICI) (Nakaseomyces glabratus [34]): 0.625
- fractional inhibitory concentration index (FICI) (Cryptococcus neoformans [35]): 0.188
- Activity (Cryptococcus neoformans [22]): 5.7 log10CFU/g
- MST (Cryptococcus neoformans [23]): 2.5 days
- survival at 10 mg/kg (Cryptococcus neoformans [36]): 65%
- MST [24]: 3 days
- half-life [37]: 918 min
- IC50 at 24 h [25]: > 64 µg/mL
- viability at 24 h, 256 ug/ml [26]: 107%
- viability at 24 h, 256 ug/ml [27]: 104%
- hemolysis at 1 h, 16 ug/ml [28]: 2.32%
- hemolysis at 1 h, 256 ug/ml [29]: 2.47%
- survival at 10 mg/kg (Cryptococcus neoformans [30]): 30%
- survival at 10 mg/kg [31]: 35%
